Measurements published in PubChem BioAssay AID248 (DTP/NCI, 2004).
Several values for one entry are separate records, joined by “and”; a condition that tells them apart may be missing. Identical values can stand only once. Inconclusive results and toxic doses are left out. No stated cut-off is given here; in the data, active means T/C of 150% or more; inactive means T/C below 125%.

Test system: L1210 leukemia ip in BDF1 mice, survival T/C
Assay: NCI In Vivo Anticancer Drug Screen. Data for tumor model L1210 Leukemia (intraperitoneal) in B6D2F1 (BDF1) mice
Conditions: endpoint: mean survival time, higher = longer survival
Method in brief: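 Transplanted-tumor mice were given test agent; controls received vehicle only. Survival readings from the two groups were divided (treated over control).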

[1] = dose: 50.0 mg/kg/injection, schedule: Q01DX009 (ip), vehicle: saline with Tween-80
[2] = dose: 100.0 mg/kg/injection, schedule: Q01DX009 (ip), vehicle: saline with Tween-80
[3] = dose: 100.0 mg/kg/injection, schedule: Q04DX003 (ip), vehicle: saline with Tween-80
[4] = dose: 200.0 mg/kg/injection, schedule: Q04DX003 (ip), vehicle: saline with Tween-80
[5] = dose: 100.0 mg/kg/injection, schedule: Q01DX001 (ip), vehicle: saline with Tween-80
[6] = dose: 100.0 mg/kg/injection, schedule: Q04DX002 (ip), vehicle: saline with Tween-80
[7] = dose: 200.0 mg/kg/injection, schedule: Q01DX001 (ip), vehicle: saline with Tween-80
[8] = dose: 200.0 mg/kg/injection, schedule: Q04DX002 (ip), vehicle: saline with Tween-80
[9] = dose: 400.0 mg/kg/injection, schedule: Q04DX002 (ip), vehicle: saline with Tween-80
[10] = dose: 100.0 mg/kg/injection, schedule: Q01DX009 (ip), vehicle: Klucel (hydroxypropylcellulose) (HPC)
[11] = dose: 100.0 mg/kg/injection, schedule: Q04DX002 (ip), vehicle: Klucel (hydroxypropylcellulose) (HPC)
[12] = dose: 200.0 mg/kg/injection, schedule: Q01DX009 (ip), vehicle: Klucel (hydroxypropylcellulose) (HPC)
[13] = dose: 200.0 mg/kg/injection, schedule: Q01DX009 (ip), vehicle: saline with Tween-80

Measured: T/C

C#CC[N+]1=CN(c2ccc(C)cc2)Cc2cc(C)ccc21
inactive: [1] 89 % of control | [2] 93 % of control | [3] 110 % of control | [4] 98 % of control

C[CH2][Ge]([CH2]C)[CH2]C.C[CH2][Ge]([CH2]C)[CH2]C
inactive: [5] 94 % of control | [6] 95 % of control | [7] 90 % of control | [8] 95 % of control | [9] 92 % of control

NC(N)=N/N=C/c1cccc(OCC(=O)O)c1
inactive: dose: 15.0 mg/kg/injection, schedule: Q01DX Z (ip), vehicle: carboxymethylcellulose (CMC) 87 % of control | dose: 30.0 mg/kg/injection, schedule: Q01DX Z (ip), vehicle: carboxymethylcellulose (CMC) 92 % of control | dose: 60.0 mg/kg/injection, schedule: Q01DX Z (ip), vehicle: carboxymethylcellulose (CMC) 92 % of control | dose: 60.0 mg/kg/injection, schedule: Q01DX Z (oral), vehicle: carboxymethylcellulose (CMC) 100 % of control | dose: 120.0 mg/kg/injection, schedule: Q01DX Z (ip), vehicle: carboxymethylcellulose (CMC) 94 % of control | dose: 120.0 mg/kg/injection, schedule: Q01DX Z (oral), vehicle: carboxymethylcellulose (CMC) 100 % of control | dose: 240.0 mg/kg/injection, schedule: Q01DX Z (oral), vehicle: carboxymethylcellulose (CMC) 94 % of control | dose: 480.0 mg/kg/injection, schedule: Q01DX Z (oral), vehicle: carboxymethylcellulose (CMC) 100 % of control

C=C(C)COc1ccccc1
inactive: dose: 100.0 mg/kg/injection, schedule: Q01DX005 (ip), vehicle: Klucel (hydroxypropylcellulose) (HPC) 101 % of control | [10] 100 % of control | [11] 100 % of control | dose: 200.0 mg/kg/injection, schedule: Q01DX005 (ip), vehicle: Klucel (hydroxypropylcellulose) (HPC) 108 % of control | [12] 102 % of control | dose: 200.0 mg/kg/injection, schedule: Q04DX002 (ip), vehicle: Klucel (hydroxypropylcellulose) (HPC) 100 % of control | dose: 400.0 mg/kg/injection, schedule: Q01DX005 (ip), vehicle: Klucel (hydroxypropylcellulose) (HPC) 97 % of control | dose: 400.0 mg/kg/injection, schedule: Q04DX002 (ip), vehicle: Klucel (hydroxypropylcellulose) (HPC) 107 % of control

C=CCOP1(=O)OCC2OC(n3cnc4c(N)ncnc43)C(O)C2O1 (centres undefined)
inactive: dose: 50.0 mg/kg/injection, schedule: Q01DX009 (ip), vehicle: saline 98 % of control | dose: 100.0 mg/kg/injection, schedule: Q01DX005 (ip), vehicle: saline 100 % of control | dose: 100.0 mg/kg/injection, schedule: Q01DX009 (ip), vehicle: saline 89 % of control | dose: 200.0 mg/kg/injection, schedule: Q01DX005 (ip), vehicle: saline 92 % of control | dose: 200.0 mg/kg/injection, schedule: Q01DX009 (ip), vehicle: saline 97 % of control

COCCCNP(=O)(OC)OC
inactive: dose: 100.0 mg/kg/injection, schedule: Q01DX001 (ip), vehicle: acetone 98 % of control | dose: 100.0 mg/kg/injection, schedule: Q04DX003 (ip), vehicle: acetone 98 % of control | dose: 200.0 mg/kg/injection, schedule: Q01DX001 (ip), vehicle: acetone 112 % of control | dose: 200.0 mg/kg/injection, schedule: Q04DX003 (ip), vehicle: acetone 100 % of control | dose: 400.0 mg/kg/injection, schedule: Q01DX001 (ip), vehicle: acetone 105 % of control | dose: 400.0 mg/kg/injection, schedule: Q04DX003 (ip), vehicle: acetone 95 % of control

COc1ccc(C2C(=O)c3ccccc3C2=O)cc1OC
inactive: dose: 100.0 mg/kg/injection, schedule: Q01DX001 (ip), vehicle: Klucel (hydroxypropylcellulose) (HPC) 94 % of control | dose: 200.0 mg/kg/injection, schedule: Q01DX001 (ip), vehicle: Klucel (hydroxypropylcellulose) (HPC) 88 % of control

COc1ccc(Cl)cc1NC(=O)c1ccccc1Cl
inactive: [10] 95 % of control | [12] 102 % of control | dose: 400.0 mg/kg/injection, schedule: Q01DX009 (ip), vehicle: Klucel (hydroxypropylcellulose) (HPC) 101 % of control

FC(F)(F)c1ccc(C2=Nc3cccc4cccc(c34)N2)cc1
inactive: dose: 15.0 mg/kg/injection, schedule: Q01DX Z (ip), vehicle: saline 105 % of control | dose: 30.0 mg/kg/injection, schedule: Q01DX Z (ip), vehicle: saline 112 % of control | dose: 60.0 mg/kg/injection, schedule: Q01DX Z (ip), vehicle: saline 110 % of control | dose: 120.0 mg/kg/injection, schedule: Q01DX Z (ip), vehicle: saline 98 % of control | dose: 120.0 mg/kg/injection, schedule: Q01DX Z (oral), vehicle: saline 105 % of control | dose: 240.0 mg/kg/injection, schedule: Q01DX Z (ip), vehicle: saline 97 % of control | dose: 240.0 mg/kg/injection, schedule: Q01DX Z (oral), vehicle: saline 118 % of control | dose: 480.0 mg/kg/injection, schedule: Q01DX Z (ip), vehicle: saline 86 % of control | dose: 480.0 mg/kg/injection, schedule: Q01DX Z (oral), vehicle: saline 106 % of control | dose: 960.0 mg/kg/injection, schedule: Q01DX Z (oral), vehicle: saline 91 % of control

C#CCOc1ccccc1O
inactive: dose: 100.0 mg/kg/injection, schedule: Q01DX009 (ip), vehicle: acetone 94 % of control and 91 % of control | dose: 200.0 mg/kg/injection, schedule: Q01DX009 (ip), vehicle: acetone 94 % of control | dose: 400.0 mg/kg/injection, schedule: Q01DX009 (ip), vehicle: acetone 100 % of control and 92 % of control

O=c1ccn(C2CC(O)C(CO)C2)c(=S)[nH]1 (centres undefined)
inactive: [1] 103 % of control | [2] 107 % of control | [13] 93 % of control

Cc1cc(C(=O)/C=C(\C(=O)c2ccccc2)c2ccccc2)ccc1Cl
inactive: dose: 12.5 mg/kg/injection, schedule: Q04DX002 (ip), vehicle: Klucel (hydroxypropylcellulose) (HPC) 98 % of control | dose: 25.0 mg/kg/injection, schedule: Q04DX002 (ip), vehicle: Klucel (hydroxypropylcellulose) (HPC) 119 % of control | dose: 50.0 mg/kg/injection, schedule: Q04DX002 (ip), vehicle: Klucel (hydroxypropylcellulose) (HPC) 94 % of control | [11] 86 % of control

O=C(OC1CCCCC1)c1ccccc1-c1ccccc1C(=O)OC1CCCCC1
inactive: dose: 100.0 mg/kg/injection, schedule: Q01DX001 (ip), vehicle: other 91 % of control | dose: 200.0 mg/kg/injection, schedule: Q01DX001 (ip), vehicle: other 91 % of control | dose: 400.0 mg/kg/injection, schedule: Q01DX001 (ip), vehicle: other 86 % of control

CCOC(=O)c1ccc(NC(=S)NC(=O)C(C)Oc2ccccc2)cc1 (centres undefined)
inactive: [5] 102 % of control | [2] 92 % of control and 103 % of control | [6] 93 % of control and 106 % of control | [3] 93 % of control | [7] 94 % of control | [13] 99 % of control and 112 % of control | [8] 93 % of control and 106 % of control | [4] 93 % of control | dose: 400.0 mg/kg/injection, schedule: Q01DX001 (ip), vehicle: saline with Tween-80 108 % of control | dose: 400.0 mg/kg/injection, schedule: Q01DX009 (ip), vehicle: saline with Tween-80 97 % of control and 100 % of control | [9] 92 % of control and 93 % of control

CCCCCCN(CCCCCC)CCC(=O)c1ccc2cc(Br)c3ccccc3c2c1
inactive: dose: 13.3 mg/kg/injection, schedule: Q01DX Z (ip), vehicle: methylcellulose (MC) 92 % of control | dose: 20.0 mg/kg/injection, schedule: Q01DX Z (ip), vehicle: methylcellulose (MC) 86 % of control | dose: 30.0 mg/kg/injection, schedule: Q01DX Z (ip), vehicle: methylcellulose (MC) 92 % of control

Cn1cc[nH]c1=S
inactive: dose: 25.0 mg/kg/injection, schedule: Q04DX003 (ip), vehicle: saline 114 % of control | dose: 50.0 mg/kg/injection, schedule: Q04DX003 (ip), vehicle: saline 90 % of control | dose: 100.0 mg/kg/injection, schedule: Q01DX001 (ip), vehicle: saline 110 % of control | dose: 100.0 mg/kg/injection, schedule: Q04DX003 (ip), vehicle: saline 98 % of control | dose: 200.0 mg/kg/injection, schedule: Q01DX001 (ip), vehicle: saline 107 % of control | dose: 400.0 mg/kg/injection, schedule: Q01DX001 (ip), vehicle: saline 105 % of control
